Test results taken from PubChem BioAssay (NCI).
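Following 48 hours of exposure in 96-well plates, responses at five concentrations were used to interpolate endpoints linearly. Here, GI50 denotes the concentration required for 50% inhibition of growth. TGI: total growth inhibition.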

What was measured:
Assay in all cases: DTP human tumour cell line panel, 48 h
[1] = tested on: HOP-62 NSCLC
[2] = tested on: UACC-62 melanoma
[3] = tested on: BT-549 breast
[4] = tested on: M14 melanoma
[5] = tested on: MCF7 breast
[6] = tested on: MDA-MB-435
[7] = tested on: K-562 leukemia
[8] = tested on: A498 renal
[9] = tested on: HL-60(TB) leukemia
[10] = tested on: UO-31 renal
[11] = tested on: OVCAR-8 ovarian
[12] = tested on: ACHN renal
[13] = tested on: A549 NSCLC
[14] = tested on: MOLT-4 leukemia
[15] = tested on: U251 CNS
[16] = tested on: RXF 393 renal
[17] = tested on: T-47D breast
[18] = tested on: 786-0 renal
[19] = tested on: IGROV1 ovarian
[20] = tested on: MALME-3M melanoma
[21] = tested on: HT29 colon
[22] = tested on: SNB-75 CNS
[23] = tested on: NCI-H522 lung
[24] = tested on: NCI/ADR-RES ovarian
[25] = tested on: UACC-257 melanoma
[26] = tested on: NCI-H23 lung
[27] = tested on: CCRF-CEM leukemia
[28] = tested on: COLO 205 colon
[29] = tested on: DU-145 prostate
[30] = tested on: SF-295 CNS
[31] = tested on: TK-10 renal
[32] = tested on: SK-MEL-28 melanoma
[33] = tested on: EKVX NSCLC
[34] = tested on: MDA-MB-231 breast
[35] = tested on: SW-620 colon
[36] = tested on: SNB-19 CNS
[37] = tested on: OVCAR-3 ovarian
[38] = tested on: KM12 colon
[39] = tested on: HCT-116 colon
[40] = tested on: SK-OV-3 ovarian
[41] = tested on: HCC-2998 colon
[42] = tested on: PC-3 prostate
[43] = tested on: OVCAR-5 ovarian
[44] = tested on: HCT-15 colon
[45] = tested on: OVCAR-4 ovarian
[46] = tested on: SK-MEL-5 melanoma
[47] = tested on: SN12C renal
[48] = tested on: HS 578T breast
[49] = tested on: RPMI-8226 leukemia
[50] = tested on: SR leukemia
[51] = tested on: NCI-H226 lung
[52] = tested on: LOX IMVI melanoma
[53] = tested on: SK-MEL-2 melanoma
[54] = tested on: NCI-H460 lung
[55] = tested on: HOP-92 NSCLC
[56] = tested on: SF-539 CNS
[57] = tested on: SF-268 CNS
[58] = tested on: CAKI-1 renal

## Nc1c(F)cc(-c2nc3cc(F)ccc3[se]2)cc1Br
[1]
  GI50: 1.83 µM
  TGI: > 100 µM
[2]
  GI50: 1.06 µM
  TGI: > 100 µM
[3]
  GI50: 0.334 µM
  TGI: > 27.8 µM
[4]
  GI50: 16.5 µM
  TGI: > 100 µM
[5]
  GI50: 0.0267 µM
  TGI: > 100 µM
[6]
  GI50: 14.6 µM
  TGI: > 100 µM
[7]
  GI50: 49.2 µM
  TGI: > 100 µM
[8]
  GI50: 5.4 µM
  TGI: 36.9 µM
[9]
  GI50: > 100 µM
  TGI: > 100 µM
[10]
  GI50: 1.43 µM
  TGI: > 79 µM
[11]
  GI50: 42.1 µM
  TGI: > 100 µM
[12]
  GI50: 2 µM
  TGI: > 100 µM
[13]
  GI50: 0.137 µM
  TGI: > 100 µM
[14]
  GI50: > 46.5 µM
  TGI: > 100 µM
[15]
  GI50: 12 µM
  TGI: 70.5 µM
[16]
  GI50: 2.28 µM
  TGI: 42.8 µM
[17]
  GI50: 0.0578 µM
  TGI: 0.631 µM
[18]
  GI50: 10.6 µM
  TGI: 50.4 µM
[19]
  GI50: 0.0127 µM
  TGI: 27.4 µM
[20]
  GI50: 25.3 µM
  TGI: > 100 µM
[21]
  GI50: 0.0651 µM
[22]
  GI50: 3.23 µM
  TGI: > 63 µM
[23]
  GI50: 10.6 µM
  TGI: > 100 µM
[24]
  GI50: 38.9 µM
  TGI: > 100 µM
[25]
  GI50: > 100 µM
  TGI: > 100 µM
[26]
  GI50: 0.0414 µM
  TGI: 20 µM
[27]
  GI50: > 100 µM
  TGI: > 100 µM
[28]
  GI50: 0.0536 µM
  TGI: > 100 µM
[29]
  GI50: > 54.8 µM
  TGI: > 100 µM
[30]
  GI50: 12.7 µM
  TGI: > 100 µM
[31]
  GI50: 0.17 µM
  TGI: 0.61 µM
[32]
  GI50: > 100 µM
  TGI: > 100 µM
[33]
  GI50: 0.209 µM
  TGI: > 100 µM
[34]
  GI50: 0.306 µM
  TGI: 7.79 µM
[35]
  GI50: > 54.5 µM
  TGI: > 100 µM
[36]
  GI50: 27.8 µM
  TGI: > 100 µM
[37]
  GI50: 0.123 µM
  TGI: > 100 µM
[38]
  GI50: 0.15 µM
  TGI: > 100 µM
[39]
  GI50: 0.025 µM
  TGI: 13 µM
[40]
  GI50: 2.31 µM
  TGI: 39.3 µM
[41]
  GI50: 0.0477 µM
  TGI: 0.35 µM
[42]
  GI50: 14.5 µM
  TGI: > 100 µM
[43]
  GI50: 0.067 µM
  TGI: > 33.5 µM
[44]
  GI50: 0.0476 µM
  TGI: > 100 µM
[45]
  GI50: 0.15 µM
  TGI: > 100 µM
[46]
  GI50: 0.104 µM
  TGI: > 100 µM
[47]
  GI50: 17.7 µM
  TGI: > 100 µM
[48]
  GI50: 44.7 µM
  TGI: > 100 µM
[49]
  TGI: > 100 µM
[50]
  GI50: < 0.0162 µM
  TGI: > 100 µM
[51]
  GI50: 0.0484 µM
  TGI: 2.06 µM
[52]
  GI50: 14.1 µM
  TGI: > 100 µM
[53]
  GI50: 75 µM
  TGI: > 100 µM
[54]
  GI50: 0.0189 µM
  TGI: > 35.2 µM
[55]
  GI50: 0.526 µM
  TGI: 19.4 µM
[56]
  GI50: 11.4 µM
  TGI: 32.4 µM
[57]
  GI50: 29.4 µM
  TGI: > 100 µM

## CC(C)CCCC(C)[C@H]1CC[C@H]2N=C(NCc3ccccc3)CCC[C@]12C (some centres undefined)
[1]
  TGI: 8.56 µM
[2]
  TGI: 3.48 µM
[3]
  TGI: 8.19 µM
[5]
  TGI: 3.29 µM
[7]
  TGI: 3.23 µM
[8]
  TGI: 4.77 µM
[9]
  TGI: 7.63 µM
[10]
  TGI: 8.29 µM
[58]
  TGI: 5.65 µM
[16]
  TGI: 3.14 µM
[17]
  TGI: 8.01 µM
[21]
  TGI: 3.17 µM
[22]
  TGI: 3.52 µM
[24]
  TGI: 3.15 µM
[25]
  TGI: 5.24 µM
[27]
  TGI: 5.42 µM
[28]
  TGI: 2.77 µM
[30]
  TGI: 3.62 µM
[31]
  TGI: 5.45 µM
[32]
  TGI: 2.96 µM
[35]
  TGI: 4.45 µM
[36]
  TGI: 8.75 µM
[37]
  TGI: 5.33 µM
[39]
  TGI: > 100 µM
[40]
  TGI: 20.1 µM
[42]
  TGI: 4.93 µM
[45]
  TGI: 8.75 µM
[46]
  TGI: 3.06 µM
[47]
  TGI: 3.62 µM
[48]
  TGI: 9.48 µM
[50]
  TGI: 7.84 µM
[54]
  TGI: 3.34 µM
[55]
  TGI: 5.67 µM
[57]
  TGI: 8.92 µM

## Nc1nc(SC2CCCCC2)nc2c1ncn2C1OC(CO)C(O)C1O (centres undefined)
[4]
  GI50: 14.8 µg/mL
[22]
  GI50: 69.8 µg/mL
[23]
  GI50: 96.6 µg/mL
